# Patent publication US6365582B1, “S-substitute 11β-benzaldoxime-estra-4, 9-diene-carbonic acid thiolesters, method for the production thereof and pharmaceutical preparations containing these compounds” (Jenapharm GmbH & Co. KG, priority 1998, dated 2002)
# What was measured:
# progesterone receptor = molecular target: T1, progesterone receptor (Oryctolagus cuniculus, UniProt P06186); assay: Receptor binding affinity, progesterone receptor (competitive binding, uterus cytosol); conditions: Progesterone = 100%; uterus cytosol of estradiol-primed rabbit; tracer 3H-ORG 2058
# T1 construct: receptors in the cytosol of animal target organs; from tissue; host or cells: uterus cytosol of the estradiol-primed rabbit
# T1 sequence (P06186 1-930): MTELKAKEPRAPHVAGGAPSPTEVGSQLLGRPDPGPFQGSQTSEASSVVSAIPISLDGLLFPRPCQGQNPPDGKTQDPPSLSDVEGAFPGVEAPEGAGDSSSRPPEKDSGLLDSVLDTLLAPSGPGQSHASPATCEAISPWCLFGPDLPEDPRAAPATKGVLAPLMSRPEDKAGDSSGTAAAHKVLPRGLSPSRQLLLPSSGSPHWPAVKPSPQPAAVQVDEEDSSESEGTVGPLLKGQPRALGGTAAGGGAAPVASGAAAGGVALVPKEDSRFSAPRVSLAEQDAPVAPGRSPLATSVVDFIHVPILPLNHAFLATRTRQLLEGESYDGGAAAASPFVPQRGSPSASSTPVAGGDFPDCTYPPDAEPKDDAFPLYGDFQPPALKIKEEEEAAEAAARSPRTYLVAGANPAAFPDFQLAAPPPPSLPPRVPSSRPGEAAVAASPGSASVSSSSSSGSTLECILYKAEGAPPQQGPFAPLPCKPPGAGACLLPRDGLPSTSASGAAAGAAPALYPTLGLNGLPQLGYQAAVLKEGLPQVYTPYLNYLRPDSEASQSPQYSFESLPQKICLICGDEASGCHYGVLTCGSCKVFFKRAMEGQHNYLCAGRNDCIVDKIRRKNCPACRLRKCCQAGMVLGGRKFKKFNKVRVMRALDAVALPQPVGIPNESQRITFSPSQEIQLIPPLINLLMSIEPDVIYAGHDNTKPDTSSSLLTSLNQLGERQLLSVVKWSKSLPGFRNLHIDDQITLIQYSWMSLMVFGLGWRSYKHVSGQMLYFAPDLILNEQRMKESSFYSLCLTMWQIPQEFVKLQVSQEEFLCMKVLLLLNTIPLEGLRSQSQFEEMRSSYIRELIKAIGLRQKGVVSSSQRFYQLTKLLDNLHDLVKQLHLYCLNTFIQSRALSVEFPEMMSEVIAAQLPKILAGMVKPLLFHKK
# Protocol: (§1) Measurement of the receptor binding affinity
# (§2) The receptor binding affinity was determined by competitive binding of a specifically binding ^3H-labeled hormone (tracer) and the compound to be tested to receptors in the cytosol of animal target organs. Receptor saturation and reaction equilibrium were aimed at here. The following incubation conditions were chosen:
# Progesterone receptor Uterus cytosol of the estradiol-primed rabbit, stored at −30° C.
# Buffer for homogenization and incubation: TED buffer 20 mM tris/HCl, pH [sic]=7.4; 1 mM ethylenediamine tetracetate, 2 mM dithiothreitol) containing 250 mM sucrose.
# Reference substance: progesterone.
# (§3) After an incubation of receptor fraction, tracer and competitor for 18 h at 0-4° C., the bound and free steroid were separated by mixing in active carbon/dextran (1%/0.1%), centrifuging off and measuring the receptor-bound ^3H activity in the supernatant.
# glucocorticoid receptor = molecular target: T2, glucocorticoid receptor (Rattus norvegicus, UniProt P06536); assay: Receptor binding affinity, glucocorticoid receptor (competitive binding, thymus cytosol); conditions: Dexamethasone = 100%; thymus cytosol of adrenalectomized rat; tracer 3H-dexamethasone
# T2 construct: receptors in the cytosol of animal target organs; from tissue; host or cells: thymus cytosol of the adrenalectomized rat
# T2 sequence (P06536 1-795): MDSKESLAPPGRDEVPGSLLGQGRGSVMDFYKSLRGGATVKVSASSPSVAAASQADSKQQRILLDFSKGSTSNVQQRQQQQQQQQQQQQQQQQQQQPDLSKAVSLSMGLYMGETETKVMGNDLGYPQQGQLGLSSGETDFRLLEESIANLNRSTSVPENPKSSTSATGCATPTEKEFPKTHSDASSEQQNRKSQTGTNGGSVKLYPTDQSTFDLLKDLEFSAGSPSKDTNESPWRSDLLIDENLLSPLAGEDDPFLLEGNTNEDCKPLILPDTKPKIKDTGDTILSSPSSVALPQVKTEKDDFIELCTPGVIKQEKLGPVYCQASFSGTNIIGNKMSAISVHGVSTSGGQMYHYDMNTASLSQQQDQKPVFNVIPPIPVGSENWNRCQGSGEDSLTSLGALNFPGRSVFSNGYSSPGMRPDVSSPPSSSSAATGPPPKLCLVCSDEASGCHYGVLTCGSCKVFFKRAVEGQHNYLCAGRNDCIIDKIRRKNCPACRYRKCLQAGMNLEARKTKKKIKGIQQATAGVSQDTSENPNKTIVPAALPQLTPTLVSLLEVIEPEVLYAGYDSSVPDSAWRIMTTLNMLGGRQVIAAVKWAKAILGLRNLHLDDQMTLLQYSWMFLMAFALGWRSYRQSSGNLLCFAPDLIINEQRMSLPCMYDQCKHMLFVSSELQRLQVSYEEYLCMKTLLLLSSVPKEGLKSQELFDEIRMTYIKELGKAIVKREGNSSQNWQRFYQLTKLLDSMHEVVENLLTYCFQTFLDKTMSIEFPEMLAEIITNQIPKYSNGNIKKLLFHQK
# Protocol: as §1, §2
# Glucocorticoid receptor: Thymus cytosol of the adrenalectomized rat. Thymi stored at −30° C.
# Tracer: ^3H-dexamethasone, 20 nM.
# Reference substance: dexamethasone.
# as §3
# [1] = system: early pregnancy in the rat; assay: Inhibition of early pregnancy in the rat (early abortive action); type: in vivo; conditions: s.c., day 5-7 of pregnancy
# Protocol: Inhibition of early pregnancy in the rat Female rats weighing 180-200 g were mated in the proestrus stage. On detection of sperm in the vaginal region on the next day, this is set as day 1 (d=1) of the pregnancy. The rats are treated with test substance or vehicle using 0.2 ml of benzoyl benzoate/castor oil (1+4 v/v) subcutaneously from day 5 to day 7 (d5-d7); autopsy is carried oust painlessly on day d9. The uterus horns was [sic] dissected and examined for intact or damaged nidation sites.
# pregnancy of guinea pigs = assay: Inhibition of late pregnancy in pregnant guinea pigs (abortive action); type: in vivo; conditions: guinea pig; for Complete inhibition of pregnancy % / Complete inhibition of pregnancy N#/N (non-gravid/mated females): s.c., day 43-44 of pregnancy
# Protocol: Inhibition of late pregnancy in pregnant guinea pigs
# Pregnant guinea pigs are treated with test substances from day 43-44. Experimental animals were […] with the test substance in oily solution (0.2-2.0 ml of benzoyl benzoate/castor oil 1+4 v/v) 1× daily on day 43 and 44. Control animals were treated with vehicle. The pregnancy of the animals was monitored until day 50, in particular, the expulsion of fetuses and placentas was observed and recorded.
# guinea pig in cycle = assay: Antiluteolysis test/ovulation inhibition test in the guinea pig in cycle; type: in vivo; conditions: guinea pig
# Protocol: Antiluteolysis test/ovulation inhibition test in the guinea pig in cycle: This test is based on the fact that progesterone at the end of the cycle stimulates uterine prostaglandin secretion. In the guinea pig, the inhibition of this function leads to a persistence of the corpora lutea (antiluteolysis). […] This test thus allows the therapy-relevant typing of progesterone antagonists as ? pure” or ? agonistic” substances. Guinea pigs are treated with the test substance on day 10 to day 17 of the cycle. The progesterone concentrations in the serum are determined on day 10 before substance treatment and on the following days until autopsy ([…]., Beier, […]., Crundel, M. et al. in Current Concepts in Fertility Regulation and Reproduction, (eds). Puri, C. P. and Van Look, P. F. H. (1994) 303-328).
SMILES,Relative molar binding affinity RBA (%) to the progesterone receptor (progesterone receptor) [%],Relative molar binding affinity RBA (%) to the glucocorticoid receptor (glucocorticoid receptor) [%],Complete inhibition of pregnancy % ([1]; 3 mg/(animal × day)) [%],Complete inhibition of pregnancy N#/N (non-gravid/mated females) ([1]; 3 mg/(animal × day)),Complete inhibition of pregnancy % ([1]; 1 mg/(animal × day)) [%],Complete inhibition of pregnancy N#/N (non-gravid/mated females) ([1]; 1 mg/(animal × day)),also measured
"COCC1(OC)CCC2C3CCC4=CC(=O)CCC4=C3C(c3ccc(C=NOC(=O)SC)cc3)CC21C (stereo not drawn) [Example 1, 4-[17β-Methoxy-17α-(methoxymethyl)-3-oxoestra-4,9-dien-11β-yl]benzaldehyde 1-(E)-[O-(methylthio)carbonyl]oxime]",159,49,–,–,–,–,–
"COC[C@@]1(O)CC[C@H]2[C@@H]3CCC4=CC(=O)CCC4=C3[C@@H](c3ccc(/C=N/OC(=O)SC)cc3)C[C@@]21C [Example 2, 4-[17β-Hydroxy-17α-(methoxymethyl)-3-oxoestra-4,9-dien-11β-yl]benzaldehyde 1-(E)-[O-(methylthio)carbonyl]oxime]",185,52,0,0/4,–,–,–
"CCSC(=O)O/N=C/c1ccc([C@H]2C[C@@]3(C)[C@@H](CC[C@]3(COC)OC)[C@@H]3CCC4=CC(=O)CCC4=C32)cc1 [Example 3, 4-[17β-Methoxy-17α-(methoxymethyl)-3-oxoestra-4,9-dien-11β-yl]benzaldehyde 1-(E)-[O-(ethylthio)carbonyl]oxime]",164,42,0,0/5,0,0/5,Complete inhibition of pregnancy % (pregnancy of guinea pigs; 10 mg/animal/day): 0%; Complete inhibition of pregnancy N#/N (non-gravid/mated females) (pregnancy of guinea pigs; 10 mg/animal/day): 0/7; Complete inhibition of pregnancy % (pregnancy of guinea pigs; 30 mg/animal/day): 0%; Complete inhibition of pregnancy N#/N (non-gravid/mated females) (pregnancy of guinea pigs; 30 mg/animal/day): 0/7; Complete inhibition of pregnancy % (pregnancy of guinea pigs; 100 mg/animal/day): 0%; Complete inhibition of pregnancy N#/N (non-gravid/mated females) (pregnancy of guinea pigs; 100 mg/animal/day): 0/7; Interference with the pregnancy of guinea pigs (in words) (pregnancy of guinea pigs; very high doses): incapable even at very high doses of interfering with the pregnancy of guinea pigs; Complete inhibition of pregnancy % ([1]; 10 mg/(animal × day)): 20%; Complete inhibition of pregnancy N#/N (non-gravid/mated females) ([1]; 10 mg/(animal × day)): 1/5
"CCSC(=O)ON=Cc1ccc(C2CC3(C)C(CCC3(O)COC)C3CCC4=CC(=O)CCC4=C23)cc1 (stereo not drawn) [Example 4, 4-[17β-Hydroxy-17α-(methoxymethyl)-3-oxoestra-4,9-dien-11β-yl]benzaldehyde 1-(E)-[O-(ethylthio)carbonyl]oxime]",44,53,–,–,–,–,–
"CCSC(=O)ON=Cc1ccc(C2CC3(C)C(CCC3(O)CN=[N+]=[N-])C3CCC4=CC(=O)CCC4=C23)cc1 (stereo not drawn) [Example 5, 4-[17β-Hydroxy-17α-(azidomethyl)-3-oxoestra-4,9-dien-11β-yl]benzaldehyde-1-(E)-[O-(ethylthio)carbonyl]oxime]",77,20,–,–,–,–,–
"CCSC(=O)ON=Cc1ccc(C2CC3(C)C(CCC3(O)CCl)C3CCC4=CC(=O)CCC4=C23)cc1 (stereo not drawn) [Example 6, 4-[17β-Hydroxy-17α-(chloromethyl)-3-oxoestra-4,9-dien-11β-yl]benzaldehyde 1-(E)-[O-(ethylthio)carbonyl]oxime]",64,22,–,–,–,–,–
CCSC(=O)O/N=C/c1ccc([C@H]2C[C@@]3(C)[C@@H](CC[C@@]3(O)CC#N)[C@@H]3CCC4=CC(=O)CCC4=C32)cc1 [Example 7],42,2,0,0/5,0,0/5,–
"CCSC(=O)OC[C@]1(O)CC[C@H]2[C@@H]3CCC4=CC(=O)CCC4=C3[C@@H](c3ccc(/C=N/OC(=O)SCC)cc3)C[C@@]21C [Example 8, 4-{17β-Hydroxy-17α-[(ethylthiocarbonyloxy)methyl]3-oxoestra-4,9-dien-11β-yl]benzaldehyde 1-(E)-[O-(ethylthio)carbonyl]oxime]",74,32,–,–,–,–,–
"COC[C@]1(OC)CC[C@H]2[C@@H]3CCC4=CC(=O)CCC4=C3[C@@H](c3ccc(/C=N/O)cc3)C[C@@]21C [J 867, 11β-[4-(hydroximinomethyl)phenyl]-17β-methoxy-17α-methoxymethyl-estra-4,9-dien-3-one, reference compound]",302,77,100,5/5,100,5/5,Complete inhibition of pregnancy % ([1]; 0.3 mg/(animal × day)): 0%; Complete inhibition of pregnancy N#/N (non-gravid/mated females) ([1]; 0.3 mg/(animal × day)): 0/5
CC(=O)[C@H]1CC[C@H]2[C@@H]3CCC4=CC(=O)CC[C@]4(C)[C@H]3CC[C@]12C [progesterone],–,–,–,–,–,–,Prostaglandin / PGFM levels in the blood (in words) (guinea pig in cycle): raised prostaglandin F metabolite levels
